Data on three compounds can be found in patent US10183007B2, “Method of producing proanthocyanidin oligomer” (Nagasaki University, priority 2005, dated 2019).

Assay [1] in a line: DPPH radical-scavenging activity assay. The conditions noted are these: test concentration not given. In kind it is biochemical. The protocol: With respect to each sample, 1,1-diphenyl-2-picrylhydrazyl (DPPH) radical-scavenging activity was evaluated as follows. In a 96-hole microplate, 100 μL of DPPH solution (60 μM ethanol solution) was placed. Added thereto was 100 μL of ethanol solution of test sample or 100 μL of ethanol as control, and the mixture was gently mixed together and left standing at room temperature for 30 minutes. Then, absorbance at 520 nm was measured. The DPPH radical-scavenging activity was calculated by the following formula and 50% effective concentration (EC50) was calculated from The DPPH radical-scavenging activity value of test sample gradually diluted and its concentration. DPPH radical-scavenging activity(%)=[…] [Formula 1]
As substance to be compared with Invention Substance B, epicatechin and phloroglucinol (PL) were used. As substance to be compared with Invention Substances C to E, grape seed polyphenol polymer (GP) was used.
(The DPPH test is a chemical assay of radical scavenging.)

A short description of assay [2]: TEAC (Trolox Equivalent Antioxidant Capacity) method. Format: biochemical. The protocol: TEAC (Trolox Equivalent Antioxidant Capacity) method is a method of relatively evaluating antioxidative strength by converting antioxidative activity of a compound into antioxidative activity of Trolox which is a α-tocopherol derivative and the method is widely employed as an index of antioxidative activity.
To 36 μL of 70 μM metmyoglobin solution, 300 μL of ABTS solution and […] of 5 mM phosphate buffered saline were added. Subsequently, sample solution or 1.25 mM Yrolox solution was added thereto and gently mixed together for 5 minutes at 0° C. After 167 μL of 450 μM hydrogen peroxide solution was added thereto and mixed for 10 seconds, reaction was allowed to proceed for 5 minutes at room temperature. Absorbance at 734 nm was measured and the absorbance ratio between the sample and the Trolox solution was calculated to serve as TEAC value of the sample against […] Trolox.
As substance to be compared with Invention Substances C to E, grape seed polyphenol polymer was used.

The mark [3] stands for this setting: FIG. 8, comparison for Invention Substance B.
The mark [4] stands for this setting: FIG. 11, TEAC value against Trolox.

As to `Oc1cc(O)cc(O)c1` [phloroglucinol, reference compound], the DPPH activity result in assay [1] (setting [3]) is reported as “little such activity”. In addition, the TEAC activity in assay [2] (setting [4]) stood at 0.52 mM.

With `Oc1ccc(/C=C/c2cc(O)c([C@H]3c4c(O)cc(O)cc4O[C@H](c4ccc(O)c(O)c4)[C@@H]3O)c(O)c2)cc1` [Invention Substance A, 4b-(4-resveratroyl)-(−)-epicatechin], in assay [1] (FIG. 7, comparison for Invention Substance A), the DPPH activity was determined as 76.1%. Also, the TEAC activity in assay [2] (FIG. 10, TEAC value against 1.00 mM Trolox) is 1.33 mM.

For `Oc1cc(O)c([C@H]2c3c(O)cc(O)cc3O[C@H](c3ccc(O)c(O)c3)[C@@H]2O)c(O)c1` [Invention Substance B, 4-(2-phloroglucinol)-(−)-epicatechin], the DPPH activity entry in assay [1] (setting [3]) is “significantly high scavenging activity as compared with both of the substances”. The TEAC activity in assay [2] (setting [4]) turned out to be 1.44 mM.
